From PubChem BioAssay (NCI) come the findings set out here.

Among the test systems are PC-3 prostate; MDA-MB-435; NCI/ADR-RES ovarian; BT-549 breast; MDA-MB-231 breast; M19-MEL melanoma; XF 498 CNS; KM20L2 colon; DMS 114 small cell lung; MDA-N; 786-0 renal; HOP-18 NSCLC; RXF-631 renal; P388/ADR leukemia; SN12K1 renal; P388 leukemia.
Holding throughout (experiment): NCI tumour cell line growth inhibition, 48 h

Each structure is given as a SMILES string.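 Method: 48-hour compound exposure of cells in 96-well plates, five concentrations, linear interpolation of endpoints. Abbreviation: GI50, concentration required for 50% inhibition of growth. Definition used: TGI = concentration required for complete inhibition of growth.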

Turning to `Oc1ccc(NCn2c(=S)sc3ccccc32)cc1`, the TGI in the assay on PC-3 prostate, in the assay with MDA-MB-435, with NCI/ADR-RES ovarian, in the assay on BT-549 breast and with MDA-MB-231 breast was more than 100 µM in each case.
For `CON(C)C(=O)C(Cc1ccccc1)NC(=O)OCc1ccccc1` (configuration not stated), the TGI in the assay on M19-MEL melanoma, with XF 498 CNS, in the assay on KM20L2 colon and in the assay with DMS 114 small cell lung was more than 100 µM each time.
In the case of `CO[C@](C(=O)OC[C@H]1[C@@H](COC(C)=O)[C@@H]2O[C@H]1c1cc3c(cc12)OCO3)(c1ccccc1)C(F)(F)F`, the TGI with PC-3 prostate, in the assay with MDA-MB-435, in the assay on MDA-N, in the assay on BT-549 breast and in the assay with MDA-MB-231 breast was more than 100 µM each time.
For `CCCCCCOc1ccc(/C=N/Nc2cc(C)nc3ccc(Cl)cc23)cc1`, the GI50 in the assay with PC-3 prostate is 1.57 µM; in the assay with MDA-MB-435 it was 1.71 µM; with NCI/ADR-RES ovarian it was 1.9 µM; with MDA-MB-231 breast, 1.67 µM. For the same compound, the TGI came out at 3.21 µM in the assay with PC-3 prostate, 3.15 µM in the assay with MDA-MB-435, 3.7 µM in the assay on NCI/ADR-RES ovarian and 3.24 µM in the assay with MDA-MB-231 breast.
Turning to `CCn1cnc2c(=S)nc(N)[nH]c21`, the TGI in the assay with M19-MEL melanoma, in the assay with 786-0 renal, in the assay on KM20L2 colon and with DMS 114 small cell lung was more than 100 µM each time.
Consider `O=C(CC1Sc2ccccc2NC1=O)Nc1ccccc1[N+](=O)[O-]` (configuration not stated), for which the TGI in the assay with HOP-18 NSCLC, with M19-MEL melanoma, in the assay on RXF-631 renal, with XF 498 CNS and in the assay with KM20L2 colon was more than 100 µM each time.
In the case of `Cc1ccc(C(=O)OC(C(=O)O)C(OC(=O)c2ccc(C)cc2)C(=O)O)cc1` (configuration not stated) (tested in a mixture with another compound), the TGI in the assay with HOP-18 NSCLC was 4.39 µM; in the assay with P388/ADR leukemia, 11.7 µM; in the assay on M19-MEL melanoma, 15.1 µM; in the assay with SN12K1 renal it was 8.41 µM; with P388 leukemia it was 7.53 µM; with XF 498 CNS it was 10.2 µM. The values for the TGI in the assay with NCI/ADR-RES ovarian, in the assay with KM20L2 colon and in the assay with DMS 114 small cell lung were 23 µM, 13 µM and 12.9 µM, respectively.
For the compound `O=C1OC(c2ccccc2)=N/C1=C\c1ccc([N+](=O)[O-])cc1`, the TGI in the assay with PC-3 prostate is more than 100 µM; with 786-0 renal, more than 100 µM; with MDA-MB-435, more than 100 µM; in the assay with MDA-N, more than 100 µM; in the assay on NCI/ADR-RES ovarian, 55.1 µM; with BT-549 breast, 67 µM. Besides, in the assay with MDA-MB-231 breast, the TGI is more than 100 µM.
As to `CCOC(=O)c1csc(NC(=O)CN2CCCC2)n1`, the TGI with PC-3 prostate, in the assay with MDA-MB-435, in the assay with MDA-N, in the assay on NCI/ADR-RES ovarian and in the assay with MDA-MB-231 breast was more than 100 µM throughout.
